Experiment: Antitrypanosomal Activity Assay: Antitrypanosomal activity was tested on T. brucei brucei bloodstream from parasites (strain¿Lister 427, VATMITat 1.2). Stock solutions of compounds (50 mM) were prepared in DMSO. Two fold serial dilutions of each compound (10 wells in each row) were prepared in 96 well plates in HMI111 medium (100 μl/well; quadruplicates; cf. also Hirumi et al., J. Parasitol. 75 (1989), 985-989). One well without compound, and one well with media alone were included in each row. Parasites grown in HMI11 were inoculated (100 μl of 4×10^4/ml) in all wells (except the well with ¿media alone¿) giving a final concentration of parasites of 2×10^4/ml. The plates were incubated for 66 hours at 37° C. in the incubator with 5% CO2. 20 μl resazurin (Sigma, 0.125 mg/ml in Hanks Balanced Salt Solution) was added to all wells and the plate was further incubated for 6 hours. Change in color of resazurin (blue to pink) by living cells was measured with a 96 well plate reader (excitation at 530 nm, emission at 585 nm, filter cut-off: 570 nm). Percent inhibition values were calculated by setting the well without compound to ¿0% inhibition¿.

Row | Structure (SMILES) | IC50 [µM]
1 | Cc1ccccc1-c1ccc(CN2CCc3c(c(C(=O)NCc4ccccc4)nn3CCO)C2)cc1 | 2.76
2 | Cc1nc2sccn2c1CN1CCc2c(c(C(=O)NCc3ccccc3)nn2CCO)C1 | 27.2
3 | CC(NC(=O)c1nn(CCO)c2c1CN(C(=O)c1ncc3sccn13)CC2)c1ccccc1 (stereo not drawn) | 50.5
4 | COc1ccc(CN2CCc3c(c(C(=O)NCc4cccc(C)c4)nn3CCO)C2)c2ccccc12 | 7.69
5 | COc1ccc(CN2CCc3c(c(C(=O)NCc4cccc5ccccc45)nn3-c3cnccn3)C2)c2ccccc12 | 2.59
6 | O=C(NCc1ccccc1)c1nn(CCO)c2c1CN(CC(c1ccccc1)c1ccccc1)CC2 | 5.32
7 | COc1ccc(CN2CCc3c(c(C(=O)NCc4cccc5ccccc45)nn3CCN3CCOCC3)C2)c2ccccc12 | 0.99
8 | CC(=O)c1ccc(CN2CCc3c(c(C(=O)NCc4ccccc4)nn3CCO)C2)cc1 | 22.4
9 | O=C(NCc1cccc2ccccc12)c1nn(CCO)c2c1CN(Cc1cccc3cccnc13)CC2 | 6.43
10 | O=C(c1nn(Cc2ccccn2)c2c1CN(Cc1ccccc1)CC2)N1CCc2ccccc2C1 | 9.47
11 | O=C(NCc1ccccc1)c1nn(CCO)c2c1CN(Cc1ccc(OC(F)(F)F)cc1)CC2 | 12.5
12 | COC(=O)c1ccc2c(CN3CCc4c(c(C(=O)NCc5cccc6ccccc56)nn4CCO)C3)c[nH]c2c1 | 2.7
13 | COc1ccc(CN2CCc3c(c(C(=O)NCc4cccc5ccccc45)nn3-c3ccccc3)C2)c2ccccc12 | 0.24
14 | COc1ccc(CN2CCc3c(c(C(=O)NCc4cccc5ccccc45)nn3CCN)C2)c2c1CCCC2 | 0.57
15 | O=C(NCc1ccccc1)c1nn(-c2ccccc2)c2c1CN(Cc1c[nH]c3ccccc13)CC2 | 2.27
16 | O=C(NCc1cccc2ccccc12)c1nn(CCO)c2c1CN(Cc1ccc(-c3ccccc3)cc1)CC2 | 0.88
17 | COc1ccc(CN2CCc3c(c(C(=O)NCc4cccc5ccccc45)nn3C3CN(C(=O)C(C)(C)C)C3)C2)c2ccccc12 | 1.09
18 | Cn1nc(C(=O)NCc2ccccc2)c2c1CCN(Cc1noc3c1CCCC3)C2 | 44.8
19 | COc1ccc(CN2CCc3c(c(C(=O)NCc4cccc5ccccc45)nn3C3CCCC3)C2)c2ccccc12 | 1.22
20 | O=C(NCc1cccc2ccccc12)c1nn(CCO)c2c1CN(Cc1ccc(C(F)(F)F)cc1)CC2 | 2.99
21 | COc1ccc(CN2CCc3c(c(C(=O)NCc4cccc5cccnc45)nn3CCO)C2)c2ccccc12 | 2.96
22 | COc1ccc(CN2CCc3c(c(C(=O)NCc4cccc5ccccc45)nn3CCNC(=N)N)C2)c2ccccc12 | 0.22
23 | COc1ccc(CN2CCc3[nH]nc(C(=O)NCc4cccc5ccccc45)c3C2)c2ccccc12 | 1.11

Row | Structure (SMILES) | IC50 [µM]
24 | CC(NC(=O)c1nn(CCO)c2c1CN(CC1Cc3ccccc3CN1C)CC2)c1ccccc1 (stereo not drawn) | 13.5
25 | O=C(CC1CC1)N1CCc2c(c(C(=O)N3CCc4ccccc4C3)nn2Cc2ccccn2)C1 | 55.1
26 | CC(NC(=O)c1nn(CCO)c2c1CN(Cc1ccc3ccoc3c1)CC2)c1ccccc1 (stereo not drawn) | 16.2
27 | NCCn1nc(C(=O)NCc2cccc3ccccc23)c2c1CCN(Cc1ccc(Cl)cc1)C2 | 0.98
28 | NCCn1nc(C(=O)NCc2cccc3ccccc23)c2c1CCN(Cc1ccc(Cl)c(Cl)c1)C2 | 1.27
29 | Cn1nc(C(=O)NCc2ccccc2)c2c1CCN(Cc1ccc(-c3ccccc3)cc1)C2 | 4.08
30 | O=C(NCc1cccc2ccccc12)c1nn(CCO)c2c1CN(CCc1ccccc1)CC2 | 27
31 | O=C(NCc1ccccc1)c1nn(CCO)c2c1CN(Cc1ccccc1C(F)(F)F)CC2 | 57.6
32 | O=C(NCc1ccccc1)c1nn(CCO)c2c1CN(Cc1ccc(-c3ccccc3)cc1)CC2 | 5.31
33 | COc1cc(CN2CCc3c(c(C(=O)NCc4ccccc4)nn3CCO)C2)cc2c1OCO2 | 11
34 | O=C(NCc1cccc2ccccc12)c1nn(CCO)c2c1CN(Cc1cccc3cc[nH]c13)CC2 | 4.64
35 | O=C(NCc1ccccc1)c1nn(CCO)c2c1CN(Cc1cnn(-c3ccccc3)c1)CC2 | 12.7
36 | COc1ccc(CN2CCc3nn4c(c3C2)C(=O)N(Cc2cccc3ccccc23)CC4)c2ccccc12 | 4.28
37 | Cn1nc(C(=O)NCc2ccc3ccccc3c2)c2c1CCN(Cc1c[nH]c3ccccc13)C2 | 2.62
38 | O=C(NCc1ccccc1)c1nn(CCO)c2c1CN(CC1=CC(=O)C3C=C(Cl)C=CC3O1)CC2 (stereo not drawn) | 35.6
39 | O=C(NCc1cccc2ccccc12)c1nn(CCO)c2c1CN(Cc1c[nH]c3cc(OCc4ccccc4)ccc13)CC2 | 9.9
40 | COc1ccc2[nH]c(CN3CCc4c(c(C(=O)NCc5cccc6ccccc56)nn4CCO)C3)cc2c1 | 7
41 | COc1ccc(CN2CCc3nn(CCO)c(C(=O)NCc4cccc5ccccc45)c3C2)c2ccccc12 | 23.9
42 | COc1ccc2c(CN3CCc4c(c(C(=O)NCc5cccc6ccccc56)nn4CCO)C3)c[nH]c2c1 | 2.5
43 | O=C(NCc1cccc2ccccc12)c1nn(CCO)c2c1CN(Cc1cccc(-c3ccccc3)c1)CC2 | 1.5
44 | Cc1ccc(CCN2CCc3c(c(C(=O)NCc4cccc5ccccc45)nn3CCO)C2)cc1 | 114
45 | O=C(NCc1ccccc1)c1nn(CCO)c2c1CN(Cc1cc3ccccc3c3ccccc13)CC2 | 3.36
46 | C=C(C)C1CC=C(CN2CCc3c(c(C(=O)NCc4ccccc4)nn3CCO)C2)CC1 (stereo not drawn) | 16.9

Row | Structure (SMILES) | IC50 [µM]
47 | O=C(NCc1ccccc1)c1nn(CCO)c2c1CN(Cc1ccc3c(c1)OC=CO3)CC2 | 23.3
48 | O=C(NCc1ccccc1)c1nn(CCO)c2c1CN(Cc1cccn1-c1ccccn1)CC2 | 10.4
49 | COc1ccc(CN2CCc3c(c(C(=O)NCc4cccc5ccccc45)nn3CC(O)CN)C2)c2ccccc12 (stereo not drawn) | 0.62
50 | COc1ccc(CN2CCc3c(c(C(=O)NCc4cccc5ccccc45)nn3C3CCC3)C2)c2ccccc12 | 2
51 | O=C(NCc1cccc2ccccc12)c1nn(CCO)c2c1CN(Cc1cccc3c1OCO3)CC2 | 15.9
52 | O=C(NCc1ccccc1)c1nn(CCO)c2c1CN(Cc1cccc(OC(F)F)c1)CC2 | 19.7
53 | O=C(NCc1cccc2ccccc12)c1nn(CCO)c2c1CN(Cc1c[nH]c3c(C(=O)O)cccc13)CC2 | 42.6
54 | Cn1nc(C(=O)NCc2cccc3ccccc23)c2c1CCN(Cc1cccc3ccccc13)C2 | 4.2
55 | CCc1ccc(CN2CCc3c(c(C(=O)NCc4ccccc4)nn3CCO)C2)cc1 | 13.6
56 | O=C(NCc1ccccc1)c1nn(CCO)c2c1CN(Cc1ccccc1-c1ccco1)CC2 | 6.78
57 | CC(NC(=O)c1nn(CCO)c2c1CN(Cc1cccc3c1OCO3)CC2)c1ccccc1 (stereo not drawn) | 17.6
58 | Cn1nc(C(=O)NCc2ccccc2)c2c1CCN(Cc1c[nH]c3cc(OCc4ccccc4)ccc13)C2 | 1.7
59 | COC(=O)c1cccc2c(CN3CCc4c(c(C(=O)NCc5ccccc5)nn4CCO)C3)c[nH]c12 | 13.2
60 | COc1ccc(CN2CCc3c(c(C(=O)NCc4cccc5ccccc45)nn3Cc3ccccc3)C2)c2ccccc12 | 3.41
61 | O=C(NCc1cccc2ccccc12)c1nn(CCO)c2c1CN(Cc1ccc(F)c3ccccc13)CC2 | 34
62 | C=CCn1nc(C(=O)NCc2ccccc2)c2c1CCN(Cc1ccc3ncccc3c1)C2 | 9.57
63 | Cn1nc(C(=O)NCc2ccccc2)c2c1CCN(Cc1cccc(-c3ccccc3)c1)C2 | 4.06
64 | CC(NC(=O)c1nn(CCO)c2c1CN(Cc1cnn(-c3ccccc3)c1)CC2)c1ccccc1 (stereo not drawn) | 14.5
65 | COc1ccc(CN2CCc3c(c(C(=O)NCc4cccc5[nH]ccc45)nn3CCO)C2)c2ccccc12 | 1.02
66 | COc1ccc2cc(CN3CCc4c(c(C(=O)NCc5cccc6ccccc56)nn4CCO)C3)ccc2c1 | 18
67 | COc1ccc(CN2CCc3c(c(C(=O)NCc4cc(F)cc5ccccc45)nn3CCO)C2)c2ccccc12 | 11.1
68 | CCCc1ccc(CN2CCc3c(c(C(=O)NCc4cccc5ccccc45)nn3CCO)C2)cc1 | 4.35

Reference: ChEMBL document CHEMBL5725949, “Pyrazolopyridine derivatives and their use in therapy” (2018)
